Calls of active or inactive are those of the source. The rule behind the calls is not given here.
Key:
[1] = Drug distribution in Balb/C nu/nu mouse xenografted with human HeLa cells at 2.5 umol/kg, iv measured for 1 hr by IVIS imaging analysis; format: ADME, organism-based; conditions: in vivo, dose 2.5 µmol/kg
[2] = Cytotoxicity against HUVEC cells assessed as inhibition of cell viability under dark condition incubated for 27 hrs by CCK8 assay; format: toxicity, cell-based; conditions: human
[3] = system: HeLa; experiment: Induction of apoptosis in human HeLa cells assessed as viable cells at 100 nM incubated for 3 hrs by Annexin V-FITC/PI staining based flow cytometry relative to control; format: toxicity, cell-based; conditions: read-out: Activity
[4] = system: HeLa; experiment: Induction of apoptosis in human HeLa cells assessed as necrotic cells at 100 nM incubated for 3 hrs by Annexin V-FITC/PI staining based flow cytometry relative to control; format: toxicity, cell-based; conditions: 0.1 µM
[5] = Drug localization in endoplasmic reticulum of human HeLa cells at 5 uM incubated for 30 mins by ER-Tracker Green dye based confocal scanning microscopic analysis; format: ADME; conditions: 0.5 h
[6] = Drug distribution in heart of Balb/C nu/nu mouse xenografted with human HeLa cells at 2.5 umol/kg, iv measured for 24 hr by IVIS imaging analysis; format: ADME, organism-based; conditions: in vivo, dose 2.5 µmol/kg
[7] = Cytotoxicity against mouse B16-F10 cells assessed as inhibition of cell viability under dark condition incubated for 27 hrs by CCK8 assay; format: toxicity, cell-based
[8] = Toxicity in Balb/C nu/nu mouse xenografted with human HeLa cells assessed as drug tolerance at 2.5 umol/kg, iv with photo-irradiation at 30 J/cm2 after 1 hr of compound administration measured for 24 days; format: organism-based; conditions: in vivo, 576 h, dose 2.5 µmol/kg, time 24 day
[9] = Drug concentration in plasma of Balb/C nu/nu mouse xenografted with human HeLa cells at 2.5 umol/kg, iv measured after 24 hr by IVIS imaging analysis; format: ADME, organism-based; conditions: in vivo, at 2.5 µmol/kg
[10] = Toxicity in Balb/C nu/nu mouse xenografted with human HeLa cells assessed as increase in body weight at 2.5 umol/kg, iv with photo-irradiation at 30 J/cm2 after 1 hr of compound administration measured for 24 days; format: organism-based; conditions: in vivo, 576 h, dose 2.5 µmol/kg, time 24 day
[11] = system: HeLa; experiment: Induction of apoptosis in human HeLa cells assessed as viable cells at 50 nM incubated for 3 hrs with photo-irradiation at 54 J/cm2 by Annexin V-FITC/PI staining based flow cytometry relative to control; format: functional; conditions: light or radiation study, read-out: Activity
[12] = system: HeLa; experiment: Induction of apoptosis in human HeLa cells assessed as viable cells at 100 nM incubated for 3 hrs with photo-irradiation at 54 J/cm2 by Annexin V-FITC/PI staining based flow cytometry relative to control; format: functional; conditions: light or radiation study, read-out: Activity
[13] = system: HeLa; experiment: Disruption of lysosomes in human HeLa cells at 100 nM incubated for 3 hrs by AO staining based confocal scanning microscopy; format: functional, cell-based
[14] = system: HeLa; experiment: Induction of apoptosis in human HeLa cells assessed as necrotic cells at 50 nM incubated for 3 hrs with photo-irradiation at 54 J/cm2 by Annexin V-FITC/PI staining based flow cytometry relative to control; format: functional
[15] = Cytotoxicity against human HepG2 cells assessed as inhibition of cell viability under dark condition incubated for 27 hrs by CCK8 assay; format: toxicity, cell-based
[16] = system: HeLa; experiment: Induction of apoptosis in human HeLa cells assessed as increase in percentage of apoptosis/necrosis at 100 nM incubated for 3 hrs with photo-irradiation at 54 J/cm2 by Annexin V-FITC/PI staining based flow cytometry relative to control; format: functional
[17] = system: HeLa; experiment: Induction of ROS production in human HeLa cells upto 200 nM preincubated for 2 hrs followed by H2DCFDA probe exposure for 30 mins and subsequent removal of probe by confocal scanning microscopic analysis; format: functional, cell-based; conditions: time 2.5 hrs
[18] = system: B16-F10; experiment: Photodynamic cytotoxicity against mouse B16-F10 cells assessed as inhibition of cell viability incubated for 3 hrs followed by photo-irradiation at 54 J/cm2 measured after 24 hrs by CCK8 assay; format: functional, cell-based; conditions: B16-F10, light or radiation study
[19] = system: HeLa; experiment: Antitumor activity against human HeLa cells xenografted in Balb/C nu/nu mouse assessed as tumor growth inhibition at 2.5 umol/kg, iv with photo-irradiation at 30 J/cm2 after 1 hr of compound administration measured for 24 days; format: functional, organism-based; conditions: dose 2.5 µmol/kg, time 24.0 day
[20] = system: HeLa; experiment: Photodynamic cytotoxicity against human HeLa cells assessed as inhibition of cell viability incubated for 3 hrs followed by photo-irradiation at 54 J/cm2 measured after 24 hrs by CCK8 assay; format: functional, cell-based; conditions: light or radiation study
[21] = system: HeLa; experiment: Induction of apoptosis in human HeLa cells assessed as necrotic cells at 25 nM incubated for 3 hrs with photo-irradiation at 54 J/cm2 by Annexin V-FITC/PI staining based flow cytometry relative to control; format: functional
[22] = system: HeLa; experiment: Induction of apoptosis in human HeLa cells assessed as late apoptotic cells at 100 nM incubated for 3 hrs by Annexin V-FITC/PI staining based flow cytometry relative to control; format: toxicity, cell-based; conditions: 0.1 µM
[23] = Drug distribution in kidneys of Balb/C nu/nu mouse xenografted with human HeLa cells at 2.5 umol/kg, iv measured for 1 hr by IVIS imaging analysis; format: ADME, organism-based, Kidney; conditions: in vivo, dose 2.5 µmol/kg
[24] = system: HeLa; experiment: Induction of apoptosis in human HeLa cells assessed as late apoptotic cells at 25 nM incubated for 3 hrs with photo-irradiation at 54 J/cm2 by Annexin V-FITC/PI staining based flow cytometry relative to control; format: functional
[25] = system: HeLa; experiment: Induction of apoptosis in human HeLa cells assessed as late apoptotic cells at 12.5 nM incubated for 3 hrs with photo-irradiation at 54 J/cm2 by Annexin V-FITC/PI staining based flow cytometry relative to control; format: functional
[26] = system: HeLa; experiment: Induction of apoptosis in human HeLa cells assessed as early apoptotic cells at 100 nM incubated for 3 hrs by Annexin V-FITC/PI staining based flow cytometry relative to control; format: toxicity, cell-based; conditions: 0.1 µM
[27] = Drug distribution in Balb/C nu/nu mouse xenografted with human HeLa cells at 2.5 umol/kg, iv measured for 24 hr by IVIS imaging analysis; format: ADME, organism-based; conditions: in vivo, dose 2.5 µmol/kg
[28] = Drug accumulation in tumor of Balb/C nu/nu mouse xenografted with human HeLa cells at 2.5 umol/kg, iv measured for 3 hrs by IVIS imaging analysis; format: ADME, organism-based, Neoplasm; conditions: in vivo, dose 2.5 µmol/kg
[29] = Drug distribution in lungs of Balb/C nu/nu mouse xenografted with human HeLa cells at 2.5 umol/kg, iv measured for 1 hr by IVIS imaging analysis; format: ADME, organism-based, Lung; conditions: in vivo, dose 2.5 µmol/kg
[30] = system: HeLa; experiment: Induction of apoptosis in human HeLa cells assessed as early apoptotic cells at 12.5 nM incubated for 3 hrs with photo-irradiation at 54 J/cm2 by Annexin V-FITC/PI staining based flow cytometry relative to control; format: functional
[31] = system: HeLa; experiment: Induction of apoptosis in human HeLa cells assessed as increase in percentage of apoptosis/necrosis at 50 nM incubated for 3 hrs with photo-irradiation at 54 J/cm2 by Annexin V-FITC/PI staining based flow cytometry relative to control; format: functional
[32] = Toxicity in Balb/C nu/nu mouse xenografted with human HeLa cells assessed as change in liver histology at 2.5 umol/kg, iv with photo-irradiation at 30 J/cm2 after 1 hr of compound administration measured after 24 days by H and E staining based analysis; format: organism-based; conditions: in vivo, 576 h, dose 2.5 µmol/kg, time 24 day

Drug uptake [1]: Active
Drug uptake [5]: Not Active
Drug uptake [6]: Not Active
Drug uptake [9]: 1%
Drug uptake [23]: Active
Drug uptake [27]: Not Active
Drug uptake [28]: Active
Drug uptake [29]: Active
SMILES: COc1ccc2c(c1)CCc1c(-c3ccccc3)c3n(c1-2)[B-](F)(F)[N+]1=C(c2ccc(OCC(=O)NCCCN4CCOCC4)cc2)C(I)=C(c2ccccc2)C1=N3
IC50 at 27 h [2]: > 50000 nM
viability at 0.1 µM [3]: 91.7%
Activity [4]: 1.04%
IC50 at 27 h [7]: > 50000 nM
Activity [8]: Non-Toxic
Activity [10]: Non-Toxic
viability at 0.05 µM [11]: 25.4%
viability at 0.1 µM [12]: 9.73%
Activity [13]: inactive
Activity [14]: 2.08%
IC50 at 27 h [15]: > 50000 nM
Activity [16]: 64.6%
Activity [17]: inactive
IC50 [18]: 7.2 nM
Activity [19]: Active
IC50 [20]: 2.1 nM
Activity [21]: 3.67%
Activity [22]: 5.79%
Activity [24]: 12.87%
Activity [25]: 5.57%
Activity [26]: 1.52%
Activity [30]: 5.28%
Activity [31]: 41.8%
Activity [32]: Non-Toxic
